From US20230382915A1, “GCN2 AND PERK KINASE INHIBITORS AND METHODS OF USE THEREOF” (Deciphera Pharmaceuticals, LLC, priority 2021, published 2023)

Experiments:
[1] = tested on: H358 solid tumor spheroids; test: Spheroid proliferation assay, H358; format: cell-based
Experimental: Non Small Cell Lung Cancer (NSCLC) cell lines H358 (catalog #CRL-5807) and H2030 (catalog #CRL-5914), and fibrosarcoma line HT-1080 (catalog […]) were obtained from the American Type Culture Collect (ATTC, Manassas, VA). Cells were grown in RPMI-1640 medium supplemented with 10% heat-inactivated fetal bovine serum and 1% Penicillin/Streptomycin/L-Glutamine (Invitrogen, Carlsbad, CA) at 37° C., 5% CO2, and 95% humidity and maintained at 50-80% confluency until use. 500-1000 cells were plated in 96-well ultra-low attachment plates (Corning, Glendale, AZ) with complete growth media at 80 μL/well and incubated overnight at 37° C., 5% CO2, and 95% humidity to form spheroids. The next day, serial dilutions of test compounds were prepared in complete growth media and 20 μL/well media containing compound titers was added to spheroids in triplicate. Spheroids were then incubated with test compounds for 5 days under the same conditions. At the end of the incubation, spheroids were lysed with 100 μL/well CellTiter-Glo 3D Viability Assay (Promega, Madison, WI) and luminescence was detected using Synergy2 or equivalent reader (Biotek, Winooski, VT). Data was analyzed using GraphPad Prism software (GraphPad, San Diego, CA) to calculate IC50 values.

[2] = tested on: H2030 spheroids; test: Spheroid Western blot assay, H2030; format: cell-based
Experimental: NSCLC cell lines H358 (catalog #CRL-5807) and H2030 (catalog #CRL-5914), and fibrosarcoma cell line HT-1080 (catalog […]) were obtained from the American Type Culture Collect (ATTC, Manassas, VA). Cells were grown in RPMI-1640 medium supplemented with 10% heat-inactivated fetal bovine serum and 1% Penicillin/Streptomycin/L-Glutamine (Invitrogen, Carlsbad, CA) at 37° C., 5% CO2, and 95% humidity and maintained at 50-80% confluency until use. Cells were plated at 500,000 cells/well in 24-well Elplasia plates (Corning, Glendale, AZ) with complete growth media at 1 mL/well and incubated overnight at 37° C., 5% CO2, and 95% humidity to form spheroids. The next day, serial dilutions of test compounds were prepared in complete growth media and 500 μL existing media was removed from each well and replaced with fresh media containing compound titers. Spheroids were then incubated with test compounds for 4 hours or 24 hours under the same conditions. […] Western blots were performed to quantify phospho-GCN2 (R&D Systems, Minneapolis, MN), ATF4, CHOP, cleaved PARP, cleaved Caspase 3 and 7, and beta-Actin (Cell Signaling Technology, Danvers, MA). […]

[3] = molecular target: GCN2 kinase (Homo sapiens (Human), UniProt Q9P2K8); test: Biochemical assay for GCN2 (TR-FRET kinase activity); settings: 1 mM ATP
GCN2 kinase, sequence (Q9P2K8 whole entry): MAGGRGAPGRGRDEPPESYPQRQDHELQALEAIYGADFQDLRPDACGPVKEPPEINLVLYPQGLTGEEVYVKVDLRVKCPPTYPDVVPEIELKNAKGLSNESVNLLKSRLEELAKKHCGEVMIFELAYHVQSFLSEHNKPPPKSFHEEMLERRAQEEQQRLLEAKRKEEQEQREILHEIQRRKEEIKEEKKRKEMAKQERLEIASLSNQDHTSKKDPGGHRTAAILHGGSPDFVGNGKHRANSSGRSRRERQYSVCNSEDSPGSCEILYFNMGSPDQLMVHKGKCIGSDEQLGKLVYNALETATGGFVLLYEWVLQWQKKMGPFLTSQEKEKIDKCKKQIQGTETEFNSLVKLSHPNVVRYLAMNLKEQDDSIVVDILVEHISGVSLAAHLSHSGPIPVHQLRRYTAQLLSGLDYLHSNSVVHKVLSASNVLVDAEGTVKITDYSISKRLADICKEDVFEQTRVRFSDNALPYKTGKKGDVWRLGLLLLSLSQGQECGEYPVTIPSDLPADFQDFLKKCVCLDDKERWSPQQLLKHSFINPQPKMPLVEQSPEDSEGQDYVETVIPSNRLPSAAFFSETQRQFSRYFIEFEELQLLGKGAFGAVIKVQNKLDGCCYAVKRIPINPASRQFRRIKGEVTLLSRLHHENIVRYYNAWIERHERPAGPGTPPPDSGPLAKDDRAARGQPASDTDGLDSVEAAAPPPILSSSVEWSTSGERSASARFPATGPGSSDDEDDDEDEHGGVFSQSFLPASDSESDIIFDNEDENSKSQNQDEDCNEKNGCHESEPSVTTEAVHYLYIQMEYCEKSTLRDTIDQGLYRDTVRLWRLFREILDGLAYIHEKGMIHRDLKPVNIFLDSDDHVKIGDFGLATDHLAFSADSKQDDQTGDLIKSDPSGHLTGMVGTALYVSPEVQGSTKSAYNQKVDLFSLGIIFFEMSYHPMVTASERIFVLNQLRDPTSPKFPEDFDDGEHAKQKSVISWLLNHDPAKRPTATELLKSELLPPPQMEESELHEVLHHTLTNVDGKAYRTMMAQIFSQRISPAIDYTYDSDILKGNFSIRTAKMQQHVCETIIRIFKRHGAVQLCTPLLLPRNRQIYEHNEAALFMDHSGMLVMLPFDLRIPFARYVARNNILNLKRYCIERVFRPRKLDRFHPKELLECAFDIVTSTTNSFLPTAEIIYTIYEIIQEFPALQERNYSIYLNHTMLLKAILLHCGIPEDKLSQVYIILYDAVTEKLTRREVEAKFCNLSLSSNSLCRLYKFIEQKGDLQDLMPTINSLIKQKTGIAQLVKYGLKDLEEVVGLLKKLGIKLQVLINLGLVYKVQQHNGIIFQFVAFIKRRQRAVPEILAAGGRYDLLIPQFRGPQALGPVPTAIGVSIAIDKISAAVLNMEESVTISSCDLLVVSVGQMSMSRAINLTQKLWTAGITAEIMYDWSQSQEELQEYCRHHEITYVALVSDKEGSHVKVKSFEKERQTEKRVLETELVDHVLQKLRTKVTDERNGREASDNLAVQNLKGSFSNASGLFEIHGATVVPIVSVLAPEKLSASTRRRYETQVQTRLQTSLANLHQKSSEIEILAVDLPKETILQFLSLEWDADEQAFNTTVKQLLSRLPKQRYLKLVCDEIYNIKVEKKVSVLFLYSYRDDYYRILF
Experimental: Activity of GCN2 kinase was determined using a TR-FRET kinase activity assay (e.g. Riddle et al. Analytical Biochemistry (2006) 356(1) 108-116). Assays were conducted in 384-well plates (13 μL assay volume) using 2 nM GCN2 (Carna Biosciences), 130 nM GFP-EIf2α (Invitrogen), 0.2 mg/mL E. coli tRNA (sigma) and 1 mM ATP in kinase buffer (Invitrogen). Inhibition of GCN2 was measured by adding serial diluted test compound (final assay concentration of 0.5% DMSO) followed by a 3-hour incubation. Tb-peIF2α (pSer52) antibody (Invitrogen) (2 nM final assay concentration) in kinase buffer containing EDTA (final assay concentration of 20 mM) was added. After a 60 min incubation at room temperature, TR-FRET was monitored using an excitation wavelength of 340 nm and emission wavelengths of 490 nm and 520 nm. The emission ratio (520/490) at each compound concentration of was converted to percent inhibition using controls (i.e., reaction with no test compound and reaction with a known inhibitor) and IC50 values were calculated by fitting a four-parameter sigmoidal curve to the data using Prism (GraphPad software).

[4] = tested on: ATF4 in HCT116 colorectal cancer cells; test: HCT116 amino acid starved (-AA) ATF4 Western blot; format: cell-based; settings: Homo sapiens, HCT-116, 4 h
Experimental: HCT116 colorectal cancer cells (catalog #CCL-247) were obtained from the American Type Culture Collect (ATTC, Manassas, VA). Briefly, cells were grown in RPMI 1640 supplemented with 10% heat inactivated fetal bovine serum (Invitrogen, Carlsbad, CA) and 1% Penicillin/Streptomycin/L-Glutamine at 37° C., 5% CO2, and 95% humidity. Cells were expanded until reaching 70-95% confluency at which point they were subcultured or harvested for assay use. Cells were seeded in 12-well culture plate at five hundred thousand cells per well in 1 mL complete growth medium and incubated overnight at 37° C., 5% CO2, and 95% humidity. The next day each well was replaced with 1 mL Earle's Balanced Salt Solution (EBSS, Invitrogen, Carlsbad, CA) supplemented with 10% Dialyzed Fetal Bovine Serum, 5.5 mM Glucose, 1% Penicillin/Streptomycin and 1% Vitamin solution (thermo #11120052). A serial dilution of test compound was dispensed into well. Plates were incubated for 4 h at 37° C., 5% CO2, and 95% humidity. […] Western blot was performed on each lysate to quantify phospho-GCN2 (Thr899), total GCN2, ATF4 and beta-Actin. […] Data were analyzed using GraphPad Prism software (GraphPad, San Diego, CA) to calculate IC50 values.

With `Cn1cc(-c2cccc(NS(=O)(=O)c3cc(Cl)cc(CO)c3Cl)c2F)c2c(N)ncnc21` [Example 2, N-(3-(4-amino-7-methyl-7H-pyrrolo[2,3-d]pyrimidin-5-yl)-2-fluorophenyl)-2,5-dichloro-3-(hydroxymethyl)benzenesulfonamide] the IC50 ([1]; Homo sapiens, NCI-H358, 120 h, 5 days, FIG. 11B, read-out: inhibition of cell proliferation IC50, single agent) was 10 nM, the “spheroid growth, combination treatment” value ([1]; with 3.3 nM sotorasib, 96 h, FIG. 12B) was “greater spheroid regression compared to either single agent” and the “upregulation of ATF4 (Western blot quantification)” value [2] was “up to 20 fold”. The IC50 [3] was at most 100 nM and the IC50 [4] was at most 100 nM.
